Key:
[1] = tested on: HCV type 1b replicon in Huh-7 luc/neo (Huh-Luc) cells; experiment: Replicon assay: inhibition of HCV RNA replication in Huh-Luc cells (luciferase); assay type: cell-based; settings: Hepatitis C virus, Huh-7, 72 h, luciferase activity, incubation of three days
Method: The in vitro antiviral activity against HCV of the compounds of formula (I) was tested in a cellular HCV replicon system based on Lohmann et al. (1999) Science 285:110-113, with the further modifications described by Krieger et al. (2001) Journal of Virology 75: 4614-4624, which is further exemplified in the examples section. This model, while not a complete infection model for HCV, is widely accepted as the most robust and efficient model of autonomous HCV RNA replication currently available. […] It will be appreciated that it is important to distinguish between compounds that specifically interfere with HCV functions from those that exert cytotoxic or cytostatic effects in the HCV replicon model, and as a consequence cause a decrease in HCV RNA or linked reporter enzyme concentration. Assays are known in the field for the evaluation of cellular cytotoxicity based for example on the activity of mitochondrial enzymes using fluorogenic redox dyes such as resazurin. Furthermore, cellular counter screens exist for the evaluation of non-selective inhibition of linked reporter gene activity, such as firefly luciferase. Appropriate cell types can be equipped by stable transfection with a luciferase reporter gene whose expression is dependent on a constitutively active gene promoter, and such cells can be used as a counter-screen to eliminate non-selective inhibitors.
The compounds of formula (I) were examined for activity in the inhibition of HCV RNA replication in a cellular assay. […] The cellular assay was based on a bicistronic expression construct, as described by Lohmann et al. (1999) Science vol. 285 pp. 110-113 with modifications described by Krieger et al. (2001) Journal of Virology 75: 4614-4624, in a multi-target screening strategy. In essence, the method was as follows.
The assay utilized the stably transfected cell line Huh-7 luc/neo (hereafter referred to as Huh-Luc). This cell line harbors an RNA encoding a bicistronic expression construct comprising the wild type NS3-NS5B regions of HCV type 1b translated from an Internal Ribosome Entry Site (IRES) from encephalomyocarditis virus (EMCV), preceded by a reporter portion (FfL-luciferase), and a selectable marker portion (neo^R, neomycine phosphotransferase). The construct is bordered by 5′ and 3′ NTRs (non-translated regions) from HCV type 1b. Continued culture of the replicon cells in the presence of G418 (neo^R) is dependent on the replication of the HCV RNA. The stably transfected replicon cells that express HCV RNA, which replicates autonomously and to high levels, encoding inter alia luciferase, are used for screening the antiviral compounds.
The replicon cells were plated in 384 well plates in the presence of the test and control compounds which were added in various concentrations. Following an incubation of three days, HCV replication was measured by assaying luciferase activity (using standard luciferase assay substrates and reagents and a Perkin Elmer ViewLux™ ultraHTS microplate imager). Replicon cells in the control cultures have high luciferase expression in the absence of any inhibitor. The inhibitory activity of the compound on luciferase activity was monitored on the Huh-Luc cells, enabling a dose-response curve for each test compound.

HCV NS3/4A protease = HCV NS3/4A protease (Hepatitis C virus genotype 1a (isolate H77) (HCV), UniProt P27958); experiment: Inhibition assay (enzymatic assay) of full-length NS3 protease with NS4A cofactor; assay type: biochemical
Sequence of HCV NS3/4A protease (P27958 1027-1657): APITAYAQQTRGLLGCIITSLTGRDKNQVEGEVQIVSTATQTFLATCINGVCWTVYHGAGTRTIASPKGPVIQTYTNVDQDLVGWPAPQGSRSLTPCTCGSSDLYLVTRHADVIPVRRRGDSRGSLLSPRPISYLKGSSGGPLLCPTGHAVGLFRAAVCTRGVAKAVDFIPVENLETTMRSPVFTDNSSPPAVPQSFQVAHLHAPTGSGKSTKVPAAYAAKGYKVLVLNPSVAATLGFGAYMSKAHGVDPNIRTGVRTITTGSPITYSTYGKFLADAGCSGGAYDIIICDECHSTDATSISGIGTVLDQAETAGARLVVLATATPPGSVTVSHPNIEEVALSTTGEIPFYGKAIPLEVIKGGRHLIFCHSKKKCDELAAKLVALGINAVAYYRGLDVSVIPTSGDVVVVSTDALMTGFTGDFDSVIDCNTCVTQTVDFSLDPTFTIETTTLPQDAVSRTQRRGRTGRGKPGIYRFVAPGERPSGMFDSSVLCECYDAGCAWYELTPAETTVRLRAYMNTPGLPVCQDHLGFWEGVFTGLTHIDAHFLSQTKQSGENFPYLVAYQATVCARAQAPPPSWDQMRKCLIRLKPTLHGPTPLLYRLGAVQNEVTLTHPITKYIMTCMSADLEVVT
Method: [Landro, 1997 #Biochem 36 9340-9348]. […] The solutions were stored at −20° C. between measurements.
[Liu, 1999 Analytical Biochemistry 267 331-335].

[2] = In vivo effects of ritonavir on the oral pharmacokinetics of Compound nr. 47 in rat; settings: male and female Sprague-Dawley rats, single oral 10 mg/kg Compound nr. 47, boosting with 10 mg/kg ritonavir about 30 minutes before, plasma
Method: Oral pharmacokinetics of Compound nr. 47 in male and female Sprague-Dawley rats after a single dose at 10 mg/kg, using a formulation in 50% PEG400/water and the influence of “boosting” with 10 mg/kg ritonavir were investigated.
Four male and four female Sprague-Dawley (SD)-rats (approx. body weight 200-250 g) were randomly divided into 2 groups of 2 males and females each (boosted and non-boosted) based on body weight. […] The animals were fasted shortly before the trial. Drinking water remained available ad libitum.
Rats from the non-boosted group received a single oral 10 mg/kg dose of Compound nr. 47, formulated as a 3 mg/ml 50% PEG400/water at pH 8. Rats from the boosted group received a single oral dose of ritonavir, about 30 minutes before single oral dosing with 10 mg/kg of Compound nr. 47. The drug formulations were administered by oral gavage.
From each rat, a 0.5 ml blood sample was collected at 0.5 h, 1 h, 2 h, 4 h and 8 h after dosing. Plasma concentrations were determined using HPLC-MS. Results are shown in the table 2 below, expressed as fold change in pharmacokinetic parameter of the boosted group as compared to the non-boosted group.

COc1ccc2c(O[C@@H]3C[C@H]4C(=O)N[C@]5(C(=O)NS(=O)(=O)C6CC6)C[C@H]5/C=C\CCCCN(C)C(=O)[C@@H]4C3)cc(-c3nc(C(C)C)cs3)nc2c1C [Compound 47, N-[17-[2-(4-isopropylthiazole-2-yl)-7-methoxy-8-methylquinolin-4-yloxy]-13-methyl-2,14-dioxo-3,13-diazatricyclo[13.3.0.0^4,6]octadec-7-ene-4-carbonyl](cyclopropyl)sulfonamide]
EC50 [1]: 0.00618 µM | Ki (HCV NS3/4A protease): 0.5 nM | Cmax, fold change of the boosted group as compared to the non-boosted group [2]: 2.2 fold change
